Non-standard residues stand in square brackets, D forms with d. Residues, ends and D or L forms follow the SMILES beside them.
What was measured:
[1] = test system: U-87MG sub-cutaneous xenograft tumors; test: Sub-cutaneous U-87MG xenograft, tumor growth; type: in vivo, human U-87MG in nude mice; details: s.c. U-87MG xenograft, 20 μM intra-tumoral every two days, end point, n=5
Experimental: Figure 3 VDAC1-based peptides inhibit tumor growth, cell proliferation, and invasion in a glioblastoma xenograft mice model A. Graphical representation of the xenograft experiment protocol used. U-87MG cells (3×10^6/mouse) were inoculated into male nude mice as described in Materials and Methods available online in Supplemental information. B, C. […] The calculated average tumor volumes are presented as means ± SE (n=5) (* p≤0.05, ** p≤0.01). C. The volume of peptide-treated tumors is presented as % of control for each indicated time. Results = mean ± SE (n=5) (* p≤0.05, ** […]). […] E. Quantitative analysis of Ki-67 positive cells. Results = mean ± SE (n=5) (*** p<0.001). […]
U-87MG glioblastoma cells (3 x10^6) were inoculated s.c. into the hind leg flanks of athymic eight-week old male nude mice (Envigo). Thirteen days post-inoculation, tumor volume was measured (100-130 mm^3) and mice were randomized into three groups (5 animals/group), treated with PBS containing 0.26% DMSO or peptide in PBS, 0.26% DMSO/20 μM every second day. […]
(Calbiochem, UK). […] Thirteen days post-inoculation, using various primary antibodies (sources and dilutions tumor volume was measured and calculated (100-130 as detailed in supplementary Table 2), followed by mm3) and mice were randomized into three groups (5 the appropriate HRP-conjugated secondary antibodies mice/group). […]

G7 stem cells = test: Apoptosis by FITC-Annexin V/PI staining and flow cytometry, G7; type: cell-based, GBM patient; details: 3 h at 37°C, Fig 6G-H
Experimental: Sections were also hematoxylin-stained and visualized by microscopy. B. Tissue lysates obtained from controls and several TF-D-LP4-TTs were immunoblotted for Nestin, Sox2, NGFR, CD133, and Klf4. C. Quantitative analysis of immunoblots is shown (n=2-4). D. Immunoblot analysis of, Klf4, Sox2, Nestin and Musashi expression in U-87MG and G7 cell lines, using specific antibodies. E. Quantitative analysis of immunoblots. […] G. G7 (·) and U-87MG cells (○) (2×10^5) were incubated for 3 h with the DMSO (0.15%) or with the indicated concentration of Retro-Tf-D-LP4 peptide in serum-free growth medium at 37°C and then subjected to FITC-Annexin V/PI staining and flow cytometry analysis. H. Representative FACS analysis of DMSO- (left) and 5 μM of Retro-Tf-D-LP4- (right) treated G7 or U-87MG cells.
Cells (6×10^5 /ml) were incubated in 500 μl serum-free medium with the peptide of interest for 6 h at 37°C in the presence of 5% CO2. The cells were then trypsinized, centrifuged (1500xg, 5 min), washed with PBS and analyzed for cell death using propidium iodide (PI) staining and flow cytometer (Beckton-Dickinson, San Jose, CA) and BD CellQuest Pro software. Apoptotic cell death was also analyzed by PI and annexin V-FITC staining, and by acridine orange and ethidium bromide staining and light microscopy (Olympus LX2-KSP).

CC[C@@H](C)[C@@H](NC(=O)[C@@H](CCCCN)NC(=O)[C@H](NC(=O)[C@@H](CCC(N)=O)NC(=O)[C@@H](CCCNC(=N)N)NC(=O)[C@@H](CC(C)C)NC(=O)CNC(=O)[C@@H](Cc1ccccc1)NC(=O)CNC(=O)[C@@H](Cc1ccc(O)cc1)NC(=O)CNC(=O)[C@@H](CCCCN)NC(=O)[C@H](NC(=O)[C@@H](Cc1ccccc1)NC(=O)[C@H](NC(=O)[C@@H](CC(=O)O)NC(=O)[C@H](N)CCCNC(=N)N)C(C)C)[C@H](C)O)[C@H](C)CC)C(=O)N[C@H](Cc1c[nH]c2ccccc12)C(=O)N[C@H](Cc1ccccc1)C(=O)N[C@H](CCC(N)=O)C(=O)N[C@H](CC(N)=O)C(=O)N[C@H](CCCNC(=N)N)C(=O)N[C@H](CCCNC(=N)N)C(=O)N[C@H](CCSC)C(=O)N[C@H](CCCCN)C(=O)N[C@H](Cc1c[nH]c2ccccc12)C(=O)N[C@H](CCCCN)C(=O)N[C@H](CCCCN)C(=O)O [D-ΔN-Ter-Antp] (H-[dR][dD][dV][dF][dT][dK]G[dY]G[dF]G[dL][dR][dQ][dI][dK][dI][dW][dF][dQ][dN][dR][dR][dM][dK][dW][dK][dK]-OH; N-terminus and C-terminus assumed)
lower average tumor volume relative to PBS/DMSO [1]: about 75%

CC[C@H](C)[C@H](NC(=O)[C@H](Cc1ccc(O)cc1)NC(=O)[C@@H]1CCCN1C(=O)[C@H](CCCNC(=N)N)NC(=O)[C@H](Cc1c[nH]cn1)NC(=O)[C@H](CO)NC(=O)[C@H](Cc1c[nH]c2ccccc12)NC(=O)[C@@H](NC(=O)[C@H](Cc1c[nH]c2ccccc12)NC(=O)[C@H](CCC(=O)O)NC(=O)[C@@H](CCCCN)NC(=O)[C@@H](CCCCN)NC(=O)[C@@H](CC(C)C)NC(=O)[C@@H](CCC(=O)O)NC(=O)[C@H](NC(=O)[C@@H](C)NC(=O)[C@H](NC(=O)[C@@H](CC(N)=O)NC(=O)[C@@H](CC(C)C)NC(=O)[C@@H](C)NC(=O)[C@@H](Cc1c[nH]c2ccccc12)NC(=O)[C@H](NC(=O)[C@@H](C)NC(=O)CNC(=O)[C@@H](CC(N)=O)NC(=O)[C@@H](CO)NC(=O)[C@@H](CC(N)=O)NC(=O)[C@H](CCCCN)NC(=O)[C@H](Cc1c[nH]c2ccccc12)NC(=O)[C@@H](NC(=O)[C@H](Cc1c[nH]c2ccccc12)NC(=O)[C@@H](N)CCCCN)[C@@H](C)O)[C@H](C)O)C(C)C)[C@H](C)O)[C@@H](C)O)C(=O)N[C@@H](C)C(=O)N[C@@H](Cc1c[nH]cn1)C(=O)O [Retro-Tf-D-LP4]
apoptosis of G7 stem cells (G7 stem cells): induces apoptosis
